# Several values for one entry are separate records, joined by “and”; a condition that tells them apart may be missing. Equal entries are not always repeated.
# Assays:
# [1] = target: AMPKα1(h) (Homo sapiens, UniProt Q13131); assay: Kinase selectivity panel (residual activity at 1 μM); assay type: biochemical; conditions: inhibitor at 1 μM; read-out: residual kinase activity in % of maximal activity
# [2] = target: CaMKIV(h) (Homo sapiens, UniProt Q16566); assay: as above; assay type: biochemical; conditions: inhibitor at 1 μM; read-out: residual kinase activity in % of maximal activity
# Chain of CaMKIV(h) (Q16566 whole entry): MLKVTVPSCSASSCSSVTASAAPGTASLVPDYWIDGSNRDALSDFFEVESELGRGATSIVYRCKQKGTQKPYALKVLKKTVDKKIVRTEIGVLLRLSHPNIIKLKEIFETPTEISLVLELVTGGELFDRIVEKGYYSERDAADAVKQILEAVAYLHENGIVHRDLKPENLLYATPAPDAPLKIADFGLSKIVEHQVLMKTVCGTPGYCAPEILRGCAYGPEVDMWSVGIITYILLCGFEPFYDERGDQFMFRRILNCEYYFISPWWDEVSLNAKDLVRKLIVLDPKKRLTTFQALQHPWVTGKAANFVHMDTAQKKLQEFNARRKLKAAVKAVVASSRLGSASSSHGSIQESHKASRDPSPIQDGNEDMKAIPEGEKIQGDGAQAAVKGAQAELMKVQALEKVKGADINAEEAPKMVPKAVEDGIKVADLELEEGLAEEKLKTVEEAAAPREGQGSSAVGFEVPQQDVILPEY
# [3] = target: CDK5/p35(h) (Homo sapiens, UniProt Q00535); assay: as above; assay type: biochemical; conditions: inhibitor at 1 μM; read-out: residual kinase activity in % of maximal activity
# [4] = target: FAK(h) (Homo sapiens, UniProt Q05397); assay: as above; assay type: biochemical; conditions: inhibitor at 1 μM; read-out: residual kinase activity in % of maximal activity
# Chain of FAK(h) (Q05397 whole entry): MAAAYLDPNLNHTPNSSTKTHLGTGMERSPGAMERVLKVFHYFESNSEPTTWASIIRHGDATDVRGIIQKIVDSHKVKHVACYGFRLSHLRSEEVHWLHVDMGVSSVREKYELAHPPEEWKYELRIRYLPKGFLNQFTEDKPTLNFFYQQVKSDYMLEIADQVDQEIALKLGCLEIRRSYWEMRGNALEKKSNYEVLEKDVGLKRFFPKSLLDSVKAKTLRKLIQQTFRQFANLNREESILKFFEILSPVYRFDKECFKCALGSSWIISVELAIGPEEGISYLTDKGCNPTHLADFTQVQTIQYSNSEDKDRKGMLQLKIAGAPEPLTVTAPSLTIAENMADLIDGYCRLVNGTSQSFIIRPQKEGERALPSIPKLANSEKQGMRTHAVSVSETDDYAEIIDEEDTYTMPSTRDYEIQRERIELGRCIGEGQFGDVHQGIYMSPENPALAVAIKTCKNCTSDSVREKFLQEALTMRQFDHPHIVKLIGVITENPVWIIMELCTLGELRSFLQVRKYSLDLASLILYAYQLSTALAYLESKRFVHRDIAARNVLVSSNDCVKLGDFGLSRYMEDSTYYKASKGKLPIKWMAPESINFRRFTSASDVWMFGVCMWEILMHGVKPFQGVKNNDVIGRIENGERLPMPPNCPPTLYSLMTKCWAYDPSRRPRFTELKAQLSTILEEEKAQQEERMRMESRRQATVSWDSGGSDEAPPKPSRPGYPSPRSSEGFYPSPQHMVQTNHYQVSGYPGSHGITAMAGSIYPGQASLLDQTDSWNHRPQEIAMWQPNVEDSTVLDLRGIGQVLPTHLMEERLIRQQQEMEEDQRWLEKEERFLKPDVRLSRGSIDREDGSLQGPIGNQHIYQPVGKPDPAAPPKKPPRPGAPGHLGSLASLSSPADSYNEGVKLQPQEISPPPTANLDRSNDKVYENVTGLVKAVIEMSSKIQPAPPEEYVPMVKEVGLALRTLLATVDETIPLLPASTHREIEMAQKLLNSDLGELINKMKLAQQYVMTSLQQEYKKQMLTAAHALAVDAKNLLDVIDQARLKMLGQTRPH
# [5] = target: Flt3(h) (Homo sapiens, UniProt P36888); assay: as above; assay type: biochemical; conditions: inhibitor at 1 μM; read-out: residual kinase activity in % of maximal activity
# [6] = target: JAK2(h) (Homo sapiens, UniProt O60674); assay: as above; assay type: biochemical; conditions: inhibitor at 1 μM
# [7] = target: MAPK1(h) (Homo sapiens, UniProt P27361); assay: as above; assay type: biochemical; conditions: inhibitor at 1 μM; read-out: residual kinase activity in % of maximal activity
# Chain of MAPK1(h) (P27361 whole entry): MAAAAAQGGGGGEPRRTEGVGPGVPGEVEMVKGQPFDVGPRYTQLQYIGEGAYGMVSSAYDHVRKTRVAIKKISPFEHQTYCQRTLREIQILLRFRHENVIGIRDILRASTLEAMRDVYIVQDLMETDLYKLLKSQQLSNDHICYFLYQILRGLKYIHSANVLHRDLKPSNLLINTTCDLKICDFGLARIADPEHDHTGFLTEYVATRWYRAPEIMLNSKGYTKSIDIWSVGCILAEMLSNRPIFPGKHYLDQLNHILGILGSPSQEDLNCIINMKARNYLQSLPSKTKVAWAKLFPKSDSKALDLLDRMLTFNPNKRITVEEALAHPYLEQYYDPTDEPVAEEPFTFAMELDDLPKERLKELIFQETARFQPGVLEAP
# [8] = target: MAPK2(h) (Homo sapiens, UniProt P28482); assay: as above; assay type: biochemical; conditions: inhibitor at 1 μM; read-out: residual kinase activity in % of maximal activity
# [9] = target: PI3 Kinase (p110a/p85a)(h) (Homo sapiens, UniProt P42336); assay: as above; assay type: biochemical; conditions: inhibitor at 1 μM; read-out: residual kinase activity in % of maximal activity
# Chain of PI3 Kinase (p110a/p85a)(h) (P42336 whole entry): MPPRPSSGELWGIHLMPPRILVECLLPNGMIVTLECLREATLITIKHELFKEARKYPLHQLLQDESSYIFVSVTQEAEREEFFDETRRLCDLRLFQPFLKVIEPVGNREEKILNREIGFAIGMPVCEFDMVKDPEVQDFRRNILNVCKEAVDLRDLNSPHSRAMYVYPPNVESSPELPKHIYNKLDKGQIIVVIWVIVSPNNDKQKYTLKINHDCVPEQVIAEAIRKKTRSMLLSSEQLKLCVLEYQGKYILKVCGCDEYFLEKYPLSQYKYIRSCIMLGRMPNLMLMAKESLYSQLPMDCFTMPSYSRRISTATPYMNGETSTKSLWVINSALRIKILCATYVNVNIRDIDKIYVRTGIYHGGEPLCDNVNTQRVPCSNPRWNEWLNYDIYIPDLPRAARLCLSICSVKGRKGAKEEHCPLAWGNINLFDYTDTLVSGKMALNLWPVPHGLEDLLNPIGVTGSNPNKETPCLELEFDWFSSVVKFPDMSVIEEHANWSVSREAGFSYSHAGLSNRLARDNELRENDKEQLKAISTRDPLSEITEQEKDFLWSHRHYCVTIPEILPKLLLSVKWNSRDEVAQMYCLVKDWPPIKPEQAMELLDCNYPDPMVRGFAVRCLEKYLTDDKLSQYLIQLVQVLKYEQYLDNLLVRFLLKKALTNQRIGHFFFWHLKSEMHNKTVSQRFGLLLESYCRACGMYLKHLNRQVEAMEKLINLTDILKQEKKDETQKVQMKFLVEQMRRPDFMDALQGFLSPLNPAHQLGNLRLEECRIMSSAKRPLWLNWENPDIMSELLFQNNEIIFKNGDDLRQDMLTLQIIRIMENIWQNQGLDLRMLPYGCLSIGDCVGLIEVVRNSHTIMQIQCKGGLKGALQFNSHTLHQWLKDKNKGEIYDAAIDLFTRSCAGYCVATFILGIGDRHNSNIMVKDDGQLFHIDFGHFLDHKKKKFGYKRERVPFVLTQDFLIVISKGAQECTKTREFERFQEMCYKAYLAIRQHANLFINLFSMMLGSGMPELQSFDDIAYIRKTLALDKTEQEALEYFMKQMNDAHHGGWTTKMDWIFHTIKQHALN
# Chain of PI3 Kinase (p110a/p85a)(h) (P27986 whole entry partner): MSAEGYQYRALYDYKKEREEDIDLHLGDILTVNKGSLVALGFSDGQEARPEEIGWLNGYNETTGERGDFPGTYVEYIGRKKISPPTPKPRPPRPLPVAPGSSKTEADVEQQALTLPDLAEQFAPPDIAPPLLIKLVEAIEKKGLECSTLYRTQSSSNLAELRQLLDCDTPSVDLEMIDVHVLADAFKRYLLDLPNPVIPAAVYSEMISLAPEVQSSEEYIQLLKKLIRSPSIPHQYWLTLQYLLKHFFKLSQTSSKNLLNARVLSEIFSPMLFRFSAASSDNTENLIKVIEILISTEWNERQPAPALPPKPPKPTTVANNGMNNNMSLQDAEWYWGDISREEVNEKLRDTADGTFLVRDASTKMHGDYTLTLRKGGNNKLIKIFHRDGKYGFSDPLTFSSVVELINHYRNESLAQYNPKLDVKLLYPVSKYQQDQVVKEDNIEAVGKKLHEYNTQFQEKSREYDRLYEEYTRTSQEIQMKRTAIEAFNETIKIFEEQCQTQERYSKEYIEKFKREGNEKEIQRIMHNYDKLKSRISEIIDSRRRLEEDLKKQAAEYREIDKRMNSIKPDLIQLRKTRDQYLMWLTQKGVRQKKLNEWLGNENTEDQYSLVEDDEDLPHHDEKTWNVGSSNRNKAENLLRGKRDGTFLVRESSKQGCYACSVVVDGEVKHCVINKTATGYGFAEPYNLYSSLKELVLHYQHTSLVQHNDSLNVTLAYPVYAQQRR
# [10] = target: purified CaMKIIα binding to GST–GluN2B-c WT (Homo sapiens, UniProt Q9UQM7); assay: CaMKII binding to immobilized GST–GluN2B-c in vitro; conditions: for bound CaMKIIα (immunoblot, relative): Ca2+/CaM
# Experimental: CaMKII–GluN2B binding assays were done as described[9],[13],[25]. Briefly, GST–GluN2B-c tail (GST–2BC) was immobilized on anti-GST antibody-coated microtiter plates (Thermo Scientific), blocked for 30 min with 5% BSA and then overlaid with […] CaMKII (subunit concentration) in PIPES-buffered saline (pH 7.2) containing 2 mM Ca^2+, 1 μM CaM, 1 mM Mg^2+, 0.1% BSA and 0.1% Tween-20 for 20 min at room temperature. […] After extensive washes in buffer containing 1 mM EGTA, GST–2BC and bound CaMKII were eluted for 10 min in SDS loading buffer at 95 °C. Bound CaMKII was measured via immunoblot.
# [11] = tested on: CA1 LTP in CaMKII F89G-expressing slices; assay: LTP field recordings in slices of CaMKIIα KO mice injected with AAV-mScarlet-CaMKII-F89G; assay type: cell-based, mouse; conditions: for LTP time course, normalized response per slice (sheet 5d): individual slices, NM-PP1 vs Vehicle, in %
# Experimental: Stereotactic injections were performed on P24 CaMKIIα KO mice. Animals were anesthetized with an intraperitoneal injection of 2,2,2-Tribromoethanol (250 mg kg^−1) and then head fixed to a stereotactic frame (David Kopf Instruments). AAVs (0.2–0.5 µl) were injected into intermediate CA1 at a rate of […] using a syringe pump (World Precision Instruments). Coordinates (in millimetres) were anterior–posterior: −3.17; mediolateral: ±3.45 (relative to Bregma); and dorsoventral: −2.5 (relative to pia). To confirm specificity of the injection site following LTP recordings, slices were fixed in 4% paraformaldehyde; then, they were coverslipped and imaged on an Olympus slide scanning microscope.
# WT and mutant mouse hippocampal slices were prepared using P56–P70 mice. Isoflurane-anesthetized mice were rapidly decapitated, and the brain was dissected in an ice-cold high-sucrose solution containing 220 mM sucrose, 12 mM MgSO4, 10 mM glucose, 0.2 mM CaCl2, 0.5 mM KCl, 0.65 mM NaH2PO4, 13 mM NaHCO3 and 1.8 mM ascorbate. Transverse hippocampal slices (400 μm) were made using a tissue chopper (McIlwain) and transferred into 32 °C ACSF containing 124 mM NaCl, 3.5 mM KCl, 1.3 mM NaH2PO4, 26 mM NaHCO3, 10 mM glucose, 2 mM CaCl2, 1 mM MgSO4 and 1.8 mM ascorbate. All slices were recovered in 95% O2/5% CO2 for at least 1.5 h before experimentation.
# For electrophysiological slice recording experiments, a glass micropipette (typical resistance of 0.4–0.8 megaohm when filled with ACSF) was used to record fEPSPs from the CA1 dendritic layer in response to stimulation of the Schaffer collaterals using a tungsten bipolar electrode. Slices were continually perfused with 30.5 °C ± 0.5 °C ACSF at a rate of 2.5 ± 0.5 ml min^−1 during recordings. Stimuli were delivered every 20 s, and three responses (1 min) were averaged for analysis. Data were analysed using WinLTP software with slope calculated as the initial rise from 10 to 60% of the response peak. Input–output curves were generated by increasing the stimulus intensity at a constant interval until a maximum response or population spike was noted to determine stimulation that elicits 50% of maximum slope. […] A stable baseline was acquired for a minimum of 20 min at 50% maximum slope before high-frequency stimulation (HFS; 2 × 100 Hz, 10 s interval) was applied. Responses were recorded for 40 or 60 min after HFS. Change in slope was calculated as a ratio of the average slope of the 20 min baseline (before HFS). Bar graphs of the percentage of fEPSP slope were calculated by averaging the last 10 min time points post-HFS and normalized to baseline.
# Chain of AMPKα1(h) (Q13131 whole entry): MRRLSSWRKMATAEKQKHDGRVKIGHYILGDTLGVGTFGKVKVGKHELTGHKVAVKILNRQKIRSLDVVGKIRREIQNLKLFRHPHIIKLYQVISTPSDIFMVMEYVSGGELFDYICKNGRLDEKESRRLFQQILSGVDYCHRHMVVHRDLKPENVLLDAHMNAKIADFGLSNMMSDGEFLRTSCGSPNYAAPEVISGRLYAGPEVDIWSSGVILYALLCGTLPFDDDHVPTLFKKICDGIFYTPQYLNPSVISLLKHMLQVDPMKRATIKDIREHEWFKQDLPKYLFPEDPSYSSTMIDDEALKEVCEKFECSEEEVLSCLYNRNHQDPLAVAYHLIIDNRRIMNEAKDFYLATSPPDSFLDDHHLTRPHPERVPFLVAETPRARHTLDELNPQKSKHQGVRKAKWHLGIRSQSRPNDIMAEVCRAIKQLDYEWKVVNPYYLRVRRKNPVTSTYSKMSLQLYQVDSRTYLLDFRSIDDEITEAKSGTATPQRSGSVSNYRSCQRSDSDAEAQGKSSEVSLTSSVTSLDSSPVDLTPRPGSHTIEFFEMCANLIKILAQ
# Chain of AMPKα1(h) (Q9Y478 whole entry partner): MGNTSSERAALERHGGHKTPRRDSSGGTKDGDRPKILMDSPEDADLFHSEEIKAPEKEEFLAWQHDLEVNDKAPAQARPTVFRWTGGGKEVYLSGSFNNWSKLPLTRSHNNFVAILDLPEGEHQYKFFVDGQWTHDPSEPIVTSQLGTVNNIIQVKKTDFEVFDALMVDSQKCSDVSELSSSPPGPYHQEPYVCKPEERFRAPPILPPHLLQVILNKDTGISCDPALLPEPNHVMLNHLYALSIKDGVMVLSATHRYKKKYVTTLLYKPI
# Chain of AMPKα1(h) (P54619 whole entry partner): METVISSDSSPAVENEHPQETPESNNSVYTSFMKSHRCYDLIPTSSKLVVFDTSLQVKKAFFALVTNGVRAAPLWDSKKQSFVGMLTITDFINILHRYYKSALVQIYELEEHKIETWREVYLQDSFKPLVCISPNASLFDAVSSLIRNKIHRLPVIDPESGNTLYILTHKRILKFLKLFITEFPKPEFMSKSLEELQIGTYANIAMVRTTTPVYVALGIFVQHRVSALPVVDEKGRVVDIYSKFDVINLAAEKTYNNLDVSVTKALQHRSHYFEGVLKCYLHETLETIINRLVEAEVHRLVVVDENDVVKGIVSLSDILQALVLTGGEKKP
smiles,measurement,setting,value
NCCNc1cccc(-c2ccnc3[nH]c4ccccc4c23)c1 [AS283],remaining activity at 1 µM,[1],70%
same,remaining activity at 1 µM,[2],90%
same,remaining activity at 1 µM,[3],33%
same,remaining activity at 1 µM,[4],68%
same,remaining activity at 1 µM,[5],3%
same,residual kinase activity in % of maximal activity,[6],121%
same,remaining activity at 1 µM,[7],102%
same,remaining activity at 1 µM,[8],97%
same,remaining activity at 1 µM,[9],100%
same,effect on CaMKII binding to GluN2B in vitro,[10]; 10 μM AS283 in the presence of ADP,did not inhibit
same,Ca2+/CaM-induced CaMKII binding when ATP was substituted with AS283,[10]; AS283 versus ATP,significantly enhanced
same,"bound CaMKIIα (immunoblot, relative)","[10]; 10 μM AS283, no nucleotide, GST–GluN2B-c WT",7.5135 and 8.574 and 8.878 and 7.419
same,"bound CaMKIIα (immunoblot, relative)",[10]; 1 mM ADP with 10 μM AS283,1.196 and 1.2737 and 1.086 and 1.094
CC(C)(C)n1nc(Cc2cccc3ccccc23)c2c(N)ncnc21 [NM-PP1],effect on LTP induction in CaMKII F89G slices,[11]; NM-PP1 10 μM,enabled
same,"LTP time course, normalized response per slice (sheet 5d)",[11]; Time (min) 0,103.829 and 96.437 and 102.744 and 120.959 and 123.914 and 192.297 and 144.344 and 104.217 and 103.642 and 100.747 and 103.258 and 105.141 and 101.674 and 96.3411 and 105.44
same,"LTP time course, normalized response per slice (sheet 5d)",[11]; Time (min) 2.33333,150.168 and 204.285 and 322.186 and 119.321 and 114.899 and 190.522 and 128.721 and 184.151 and 177.879 and 161.407 and 188.756 and 121.03 and 118.847 and 177.028 and 124.93
same,"LTP time course, normalized response per slice (sheet 5d)",[11]; Time (min) 4.33333,139.017 and 204.469 and 290.028 and 113.213 and 106.868 and 195.712 and 130.419 and 192.043 and 166.691 and 143.621 and 171.089 and 117.041 and 117.676 and 154.052 and 148.947
same,"LTP time course, normalized response per slice (sheet 5d)",[11]; Time (min) 6.33333,131.831 and 176.494 and 247.758 and 112.468 and 113.588 and 169.626 and 124.646 and 168.164 and 143.426 and 132.43
same,"LTP time course, normalized response per slice (sheet 5d)",[11]; Time (min) -2,105.316 and 104.903 and 86.159 and 100.7 and 102.934 and 111.991 and 100.871 and 90.8613 and 108.408 and 99.877 and 100.511 and 99.326 and 97.9659 and 101.831 and 107.897
same,"LTP time course, normalized response per slice (sheet 5d)",[11]; Time (min) -4,102.838 and 104.535 and 87.5747 and 99.3595 and 101.459 and 104.616 and 103.249 and 75.684 and 101.138 and 101.174 and 99.4129 and 111.767 and 97.478 and 110.855 and 98.9622
same,"LTP time course, normalized response per slice (sheet 5d)",[11]; Time (min) -6,101.103 and 99.9338 and 95.867 and 99.0615 and 102.77 and 102.977 and 108.004 and 99.3605 and 103.117 and 97.9481 and 103.441 and 114.539 and 103.918 and 97.8041 and 96.1755

# — publication PMC10482691, “LTP induction by structural rather than enzymatic functions of CaMKII” (Nature, 2023)
